Results reported in publication PMC10439952, “JT002, a small molecule inhibitor of the NLRP3 inflammasome for the treatment of autoinflammatory disorders” (Scientific Reports, 2023).

Test system: OVA sensitized, OVA challenged and iTreg transferred CD8α-/- mice
Assay: Murine model of iTreg induced IL-17-dependent neutrophilic asthma
Type: in vivo, mouse
Experimental: In an allergen-dependent, inducible regulatory T cell (iTreg) model of IL-17-dependent neutrophilic asthma, ovalbumin (OVA) sensitized recipient CD8α^−/− mice are administered iTreg cells intratracheally (i.t.) on Day 26 after the first OVA challenge and subsequently challenged with OVA on Days 26–28[48] (Fig. 5A). This model elicits TH17-dependent IL-17 release that promotes airway neutrophilia and enhanced airway hyperresponsiveness (AHR) to inhaled methacholine. We investigated the effect of JT002 at two doses in OVA sensitized, OVA challenged and iTreg transferred CD8α^−/− mice. JT002 was administered to mice once daily (QD) by oral gavage (p.o.) on Days 23–29 at 2.5 mg/kg (n = 3/group) and at 25 mg/kg (n = 7/group) before evaluation of airway hyperresponsiveness (AHR) and airway inflammation on Day 30 (Fig. 5A). Additional control groups included vehicle treated disease animals (OVA/OVA + iTregs; n = 7/group), OVA sensitized, OVA challenged control animals (OVA/OVA; n = 6/group) and phosphate buffer saline (PBS) sensitized, OVA challenged animals (PBS/OVA; n = 4/group). […] Sensitization and challenge with OVA led to an increase in total serum IgE as well as OVA-specific serum IgE, IgG1 and IgG2b even in the absence of iTreg instillation (Fig. 5E, Supplementary Fig. 4C).
CD4^+CD25^− T cells were enriched from spleens of naïve C57BL/6 mice to > 98% purity with MACS beads (Miltenyi Biotec, Bergisch-Gladbach, Germany). Cells were washed, counted, and resuspended to a final concentration of 4 × 10^6 cells per mL and cultured in X-Vivo 15 (Lonza, Wakersville, MD) supplemented with 5 ng/mL IL-2 and stimulated with bound anti-CD3 and 2 μg/mL soluble anti-CD28 with 5 ng/mL TGF-β for five to seven days to generate iTregs. Female CD8α^−/− C57BL6/j mice were sensitized by intraperitoneal injection of 20 μg OVA (Sigma Aldrich, St. Louis, MO) emulsified in 2.25 mg alum hydroxide (Imject Alum, Pierce, Rockford, IL) in a total volume of 100 μL on Days 0 and 14. Sensitized and challenged mice, denoted OVA/OVA, and non-sensitized but challenged littermates (PBS/OVA) received aerosol challenges for 20 min each day on three consecutive days (Days 26–28) with 1% OVA in PBS using an ultrasonic nebulizer (Omron, Vernon Hills, IL). On Day 26, differentiated iTregs cells generated in vitro were washed and adoptively transferred (5 × 10^5 in 50 μL of PBS) into OVA/OVA mice, denoted as OVA/OVA + iTregs. OVA/OVA + iTregs mice were dosed orally with JT002 at 2.5 or 25 mg/kg once daily on Days 23–29 or with vehicle (0.5% methyl cellulose, 0.25% Tween 80 in 50 mM NaH2PO4/Na2HPO4 at pH 8).
Determination of airway hyperresponsiveness (AHR) AHR was assessed on Day 30 (iTreg model) or 3 h after the O3 exposure (ozone model) as a change in airway resistance (cm H2O/mL/s) after challenge with aerosolized methacholine with using a whole body plethysmograph-based system (National Jewish Medical and Research Center, Denver, CO). Methacholine aerosol was administered by nebulization in increasing concentrations (12.5–100 mg/mL) and RL was continuously computed by fitting flow, volume, and pressure to an equation of motion (Labview, National Instruments, Dallas, TX). Bronchoalveolar Lavage Immediately after assessment of AHR, lungs were lavaged via the tracheal tube with 1 mL of Hanks’ balanced salt solution (Gibco, Grand Island, NY). Total cell numbers were counted. Differential cell counts for neutrophils and macrophages were performed in a blinded fashion by counting at least 200 cells on cytocentrifuged preparations (Model Cytospin 3, Shandon Ltd, Runcorn, UK) stained with Leukostat (Fisher Diagnostics, Fair Lawn, NJ). Cell-free BAL fluid was stored at − 80 °C until measurements of cytokine levels by ELISA (eBioscience, San Diego, CA) were performed. Blood Collection Immediately following AHR measurement, mice were euthanized by exsanguination and blood collected for serum. Samples were stored at − 80 °C for subsequent measurement of immunoglobulin levels by ELISA. […]

[1] = low dose 2.5 mg/kg p.o. QD Days 23–29

CO[C@@H]1COc2c(S(=O)(=O)NC(=O)Nc3c4c(cc5c3CCC5)CCC4)cnn2C1 [JT002]
BAL IL-6 concentration (25 mg/kg p.o. QD Days 23–29): significantly decreased
BAL IL-10 concentration (25 mg/kg p.o. QD Days 23–29): strong trend for increased
BAL IL-17 concentration (25 mg/kg p.o. QD Days 23–29): significantly decreased
BAL INFγ concentration (25 mg/kg p.o. QD Days 23–29): increased
airway eosinophilia (25 mg/kg p.o. QD Days 23–29): no effect
airway hyperresponsiveness (AHR) (25 mg/kg p.o. QD Days 23–29): significantly decreased
airway neutrophilia (25 mg/kg p.o. QD Days 23–29): significantly decreased
submucosal inflammatory cell infiltration (25 mg/kg p.o. QD Days 23–29): visibly decreased
serum OVA-specific IgE (high dose (25 mg/kg)): significant decrease
serum OVA-specific IgG isoforms (high dose (25 mg/kg)): no significant effect
serum total IgE (high dose (25 mg/kg)): significant decrease
airway hyperresponsiveness (AHR) [1]: no significant changes
airway inflammation [1]: no significant changes
